From US8314131B2, “Triazole fused heteroaryl compounds and methods of use thereof” (Amgen Inc., priority 2007, dated 2012)

Tests used:
[1] = molecular target: p38α (Homo sapiens, UniProt Q16539); experiment: p38 in-vitro HTRF enzyme assay; assay type: biochemical; details: recombinant human enzyme, read-out: p38a IC50
Protocol: p38 In-Vitro HTRF Enzyme Assay
The compounds of the invention can be tested for their respective affinities for the p38 protein using a conventional p38 in-vitro enzyme activity assay. For example, a P38-alpha HTRF assay may be used to measure the protein's in-vitro phosphorylation activity, and the data analyzed using time resolved fluorimetry techniques (FRET). A p38 HTRF assay is as follows. The kinase reaction buffer for p38α, p38β, p38δ and p38γ HTRF assays consists of 50 mM Tris-pH 7.5, 5 mM MgCl2, 0.1 mg/mL BSA, 100 μM Na3VO4 and 0.5 mM DTT. The HTRF detection buffer contains 100 mM HEPES-pH 7.5, 100 mM NaCl, 0.1% BSA, 0.05% Tween-20, and 10 mM EDTA. Each compound was dissolved in 100% DMSO and serially diluted (3 fold, 10 point) in a polypropylene 96-well microtiter plate (drug plate). The final starting concentration of the compound in the p38α […]and p38β enzymatic assays was about 1 μM. The final starting concentration of each compound in the p38δ and p38γ enzymatic assays was about 10 μM. The p38α, p38β, p38δ and p38γ kinase reactions were carried out in a polypropylene 96-well black round bottom assay plate in total volume of 30 μL kinase reaction buffer. Appropriate concentration of purified and activated enzyme (recombinant human) was mixed with indicated concentration of ATP and 100 nM GST-ATF2-Avitag, in the presence or absence (HI control) of each compound. In the absence of enzyme, the background was measured as LO control. HI controls and LO controls contained only DMSO. The reaction was allowed to incubate for 1 hour at RT. […] After 60 minutes incubation at room temperature, the assay plate was read in a Discovery Plate Reader. The wells were excited with coherent 320 nm light and the ratio of delayed ([…] post excitation) emissions at […] (native europium fluorescence) and 665 nm (europium fluorescence transferred to allophycocyanin—an index of substrate phosphorylation) was determined (Park et al, 1999). The resulting data was analyzed by taking the proportion of substrate phosphorylated in the kinase reaction in the presence of each individual compound and comparing it with that phosphorylated in the presence of DMSO vehicle alone (HI control). The data was calculated using the formula: % control (POC)=(compound−average LO)/(average HI−average LO)*100. Data (consisting of POC and inhibitor concentration in μM) was fitted to a 4-parameter equation (y=A+((B−A)/(1+((x/C)^D))), where A is the minimum y (POC) value, B is the maximum y (POC), C is the x (compound concentration) at the point of inflection and D is the slope factor, using a Levenburg-Marquardt non-linear regression algorithm. The inhibition constant (Ki) of the inhibitor was estimated from the IC50 (compound concentration at the point of inflection C) using the Cheng-Prussof equation: Ki=IC50/(1+S/Km), where S is the ATP substrate concentration, and Km is the Michaelis constant for ATP as determined experimentally. All results were expressed as the mean±the standard error of the mean. Data acquisition and non-linear regression algorithms were performed using Activity Base v5.2 and XLfit software v4.1 respectively. Additional assay information may be obtained in Park Y W, Cummings R T, Wu L, et al. Homogeneous Proximity Tyrosine Kinase Assays: Scintillation Proximity Assay versus Homogeneous Time-Resolved Fluorescence. Analytical Biochemistry. 1999; 269: 94-104.

[2] = test system: IL-1; experiment: LPS induced IL-1 cell assay (LPS-induced release of IL-1β from monocytes); assay type: cell-based; details: Homo sapiens, Monocyte; LPS-activated monocytes
Protocol: Lipopolysaccharide-Activated Monocyte TNF Production Assay
Test compounds were evaluated in vitro for the ability to inhibit the production of TNF by monocytes activated with bacterial lipopolysaccharide (LPS). Fresh residual source leukocytes (a byproduct of plateletpheresis) were obtained from a local blood bank, and peripheral blood mononuclear cells (PBMCs) were isolated by density gradient centrifugation on Ficol-Paque Plus (Pharmacia). PBMCs were suspended at 2×10^6/mL in DMEM supplemented to contain 2% FCS, 10 mM, 0.3 mg/mL […], 100 U/mL penicillin G and […] streptomycin sulfate (complete media). Cells were plated into Falcon flat bottom, 96 well culture plates (200 μL/well) and cultured overnight at 37° C. and 6% CO2. Non-adherent cells were removed by washing with 200 μl/well of fresh medium. Wells containing adherent cells (˜70% monocytes) were replenished with 100 μL of fresh medium.
Preparation of Test Compound Stock Solutions
Test compounds were dissolved in […]. Compound stock solutions were prepared to an initial concentration of […]. Stocks were diluted initially to 20-200 μM in complete media. Nine two-fold serial dilutions of each compound were then prepared in complete medium.
Treatment of Cells with Test Compounds and Activation of TNF Production with Lipopolysaccharide
One hundred microliters of each test compound dilution were added to microtiter wells containing adherent monocytes and 100 μL complete medium. Monocytes were cultured with test compounds for 60 min at which time 25 μL of complete medium containing 30 ng/mL lipopolysaccharide from E. coli K532 were added to each well. Cells were cultured an additional 4 hrs. Culture supernatants were then removed and TNF presence in the supernatants was quantified using an ELISA.
Compounds of the invention can also be shown to inhibit LPS-induced release of IL-1β, IL-6 and/or IL-8 from monocytes by measuring concentrations of IL-1β, IL-6 and/or IL-8 by methods well known to those skilled in the art. […] Thus, the compounds of the invention may lower elevated levels of TNF-α, IL-1, IL-6, and IL-8 levels. Reducing elevated levels of these inflammatory cytokines to basal levels or below is favorable in controlling, slowing progression, and alleviating many disease states.

[3] = test system: THP1 cells (LPS-induced TNF-α); experiment: Lipopolysaccharide-activated THP1 cell TNF production assay; details: Homo sapiens, THP-1, TNF-α secretion, read-out: THP-1 cell based assay IC50
Protocol: Lipopolysaccharide-Activated THP1 Cell TNF Production Assay
THP1 cells are resuspended in fresh THP1 media (RPMI 1640, 10% heat-inactivated FBS, 1XPGS, 1XNEAA, plus 30 μM βME) at a concentration of 1E6/mL. One hundred microliters of cells per well are plated in a polystyrene 96-well tissue culture. One microgram per mL of bacterial LPS is prepared in THP1 media and is transferred to the wells. Test compounds are dissolved in 100% DMSO and are serially diluted 3-fold in a polypropylene 96-well microtiter plate (drug plate). HI control and LO control wells contain only DMSO. One microliter of test compound from the drug plate followed by 10 μL of LPS are transferred to the cell plate. The treated cells are induced to synthesize and secrete TNF-α at 37° C. for 3 h. Forty microliters of conditioned media are transferred to a 96-well polypropylene plate containing 110 μL of ECL buffer (50 mM Tris-HCl pH 8.0, 100 mM NaCl, 0.05% Tween 20, 0.05% NaN3 and 1% FBS) supplemented with 0.44 nM MAB610 monoclonal Ab (R&D Systems), 0.34 nM ruthenylated AF210NA polyclonal Ab (R&D Systems) and 44 μg/mL sheep anti-mouse M280 Dynabeads (Dynal). After a 2 h incubation at room temperature with shaking, the reaction is read on the ECL M8 Instrument (IGEN Inc.). A low voltage is applied to the ruthenylated TNF-α immune complexes, which in the presence of TPA (the active component in Origlo), results in a cyclical redox reaction generating light at […]. The amount of secreted TNF-α in the presence of compound compared with that in the presence of DMSO vehicle alone (HI control) is calculated using the formula: % control (POC)=(cpd−average LO)/(average HI−average LO)*100. Data (consisting of POC and inhibitor concentration in μM) is fitted to a 4-parameter equation (y=A+((B−A)/(1+((x/C)^D))), where A is the minimum y (POC) value, B is the maximum y (POC), C is the x (cpd concentration) at the point of inflection and D is the slope factor) using a Levenburg-Marquardt non-linear regression algorithm.

Sequence of p38α (Q16539 whole entry): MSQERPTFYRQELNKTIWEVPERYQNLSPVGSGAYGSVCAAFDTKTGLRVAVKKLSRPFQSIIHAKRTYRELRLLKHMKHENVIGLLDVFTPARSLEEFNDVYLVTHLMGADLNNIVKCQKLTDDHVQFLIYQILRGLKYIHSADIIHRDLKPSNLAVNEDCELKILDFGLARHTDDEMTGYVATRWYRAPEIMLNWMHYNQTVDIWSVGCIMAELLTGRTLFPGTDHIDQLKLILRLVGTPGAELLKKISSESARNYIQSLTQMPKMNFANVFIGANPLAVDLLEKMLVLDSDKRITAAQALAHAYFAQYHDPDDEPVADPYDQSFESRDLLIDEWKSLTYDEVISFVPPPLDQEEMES

IC50 [1] [nM]	IC50 [2] [nM]	IC50 [3] [nM]	SMILES
< 25	1000 to 5000	25 to 100	Cc1ccc(C(=O)NC2CC2)cc1-c1ccc2c(c1)nnn2C(C)C [Example 5, N-cyclopropyl-4-methyl-3-(1-(1-methylethyl)-1H-benzotriazol-5-yl)benzamide]
< 25	100 to 250	< 25	Cc1c(F)cc(C(=O)NC2CC2)cc1-c1ccc2c(c1)nnn2-c1ccccc1Cl [Example 6, 3-(1-(2-chlorophenyl)-1H-benzotriazol-5-yl)-N-cyclopropyl-5-fluoro-4-methylbenzamide]
< 25	25 to 100	< 25	Cc1c(F)cc(C(=O)Nc2ccnn2C)cc1-c1ccc2c(c1)nnn2-c1ccccc1Cl [Example 9, 3-(1-(2-chlorophenyl)-1H-benzotriazol-5-yl)-5-fluoro-4-methyl-N-(1-methyl-1H-pyrazol-5-yl)benzamide]
< 25	1000 to 5000	250 to 1000	Cc1ccc(C(=O)NC(C)C)cc1-c1ccc2c(c1)nnn2C(C)C [Example 4, 4-methyl-N-(1-methylethyl)-3-(1-(1-methylethyl)-1H-1,2,3-benzotriazol-5-yl)benzamide]
	25 to 100	25 to 100	Cc1c(F)cc(C(=O)NC2CC2)cc1-c1ccc2c(c1)nnn2C1CCOCC1 [Example 11, N-cyclopropyl-3-fluoro-4-methyl-5-(1-(tetrahydro-2H-pyran-4-yl)-1H-benzotriazol-5-yl)benzamide]
< 25	1000 to 5000	< 25	Cc1c(F)cc(C(=O)NC2CC2)cc1-c1ccc2c(c1)nnn2C(C)(C)C [Example 10, N-cyclopropyl-3-(1-(1,1-dimethylethyl)-1H-benzotriazol-5-yl)-5-fluoro-4-methylbenzamide]
< 25	1000 to 5000	25 to 100	Cc1ccc(C(=O)NC2CC2)cc1-c1ccc2c(c1)nnn2-c1ccccc1Cl [Example 7, 3-(1-(2-chlorophenyl)-1H-benzotriazol-5-yl)-N-cyclopropyl-4-methylbenzamide]
< 25	100 to 250	< 25	Cc1cc(F)ccc1-n1nnc2cc(-c3cc(C(=O)NC4CC4)cc(F)c3C)ccc21 [Example 8, N-cyclopropyl-3-fluoro-5-(1-(4-fluoro-2-methylphenyl)-1H-benzotriazol-5-yl)-4-methylbenzamide]
